Experiments:
[1] = tested on: aconitine-induced ventricular extrasystoles in rats; test: Anti-arrhythmic activity, aconitine test in rats (method of Raschak); type: in vivo, male Wistar rats; settings: for Change in time to occurrence of ES: vs vehicle control
Description: When administering aconitine to rats by continuous intravenous infusion, there are observed in the electrocardiogram considerable disturbances in the heartbeat, such as, for instance, ventricular extrasystoles. The tested animals were male Wistar rats of the weight class between 250 g. and 350 g. The influence of an active compound according to the present invention upon such rats after an aconitine infusion was determined according to the method of Raschak as described by M. Raschak in Arzneim. Forsch. vol. 25, No. 4, pages 639-641 (1975). […] The active compound was administered intravenously in the form of an isotonic sodium chloride solution, i.e. the vehicle, in a dose of 6.0 μmole/kg. The dose administered is one twenthieth of the lethal dose (LD50) as determined on mice. […] After intravenous administration of the active compound to be tested and of the control solution, the aconitine solution was administered by infusion in an amount which was constant per time unit. The period of time was measured within which ventricular extrasystoles (ES) were observed. Said period of time, in minutes, is given in Table 2 as well as the difference in the period of time observed on administering the test compound and the control solution.
One of the active compounds tested is the compound of Example 3, No. 302, i.e., N,N-di-n-butyl-9,9-dimethyl-3,7-diaza bicyclo-(3,3,1)-nonane as described hereinafter. There are also given the results obtained by testing an equitoxic amount of the drug known under the trademark "Lidocain", i.e., 2-(diethylamino)-N-(2,6-dimethyl phenyl)-acetamide.
Anti-arrhythmic activity determined by the […]

[2] = tested on: left atrium cordis of guinea pigs; test: Functional refractory period and contractile force of the electrically stimulated left atrium cordis (paired stimulation, method of Govier); design: species or system female albino Pirbright-white guinea pigs; settings: for EC (125%) / IC25: Cavia porcellus, administered as di-tartrate; for EC (125%): 0.3 h, 18 minutes after administration, read-out: FRP 125% (concentration prolonging functional refractory period to 125%); for IC25: left atrium, read-out: F 75% (concentration reducing contractile force to 75% of initial value); for quotient F 75%/FRP 125%: therapeutic index of the anti-arrhythmic action on the isolated organ
Source text: 148, No. 1, pages 100-105 (1965). All anti-arrhythmic drugs which at present are used in therapy and which differ in their chemical structure are distinguished by being able to prolong the functional refractory period. In addition thereto said method permits to detect the effects of compounds on the contractile force of the myocardium. […] Said quotient supplies information regarding the therapeutic index of the anti-arrhythmic action of a compound on the isolated organ. See P. Greef in Verhandlung der Deutschen Gesellschaft fuer Kreislaufforschung vol. 35, pages 88-97 (1969).

[3] = tested on: right atrium cordis of guinea pigs; test: Heart rate of the spontaneously beating, isolated right atrium cordis; design: species or system female albino Pirbright-white guinea pigs; settings: Cavia porcellus, 20 min; 20 minutes after administration; administered as di-tartrate; read-out: FRQ 75% (concentration decreasing heart rate to 75% of initial value)
Description: The direct effect of the active compound on the heart rate (FPQ) was tested on the spontaneously beating, isolated right atrium cordis of female albino Pirbright-white guinea pigs (GP) of the weight class between 300 g. and 400 g. In Table 3 there is given, as FPQ 75%, the concentration in μmole/l. by which a decrease of the heart rate to 75% of the initial value is achieved 20 minutes after administration of the compound to be tested.

[4] = in vivo; settings: mouse, po, peroral administration, mice
[5] = tested on: anesthetized rats; test: Effect on heart rate, systolic blood pressure and double product (myocardial oxygen consumption, method of Neill); type: in vivo; settings: administered as ditartrate; for Change DP: vs initial value
Description: The influence of the active compounds according to the present invention on myocardial oxygen consumption has been investigated in animal models and determined according to the method of Neill as described by W. A. Neill, H. H. Levine, R. J. Wagman, and P. Gorlin in Circulation Research, Vol. 12, page 163 (1963). The blood circulation measurements which are required for these tests, namely, systolic blood pressure and heart rate, were determined according to the design of experimental procedure as described by G. Buschmann, W. Schumacher, R. Budden, and U. G. Kuehl in J. Cardiovasc. Pharmacol., Vol. 2, pages 777-795 (1980). As is evident from the following Table 1, the active compound reduces the product* of heart rate and systolic blood pressure. Thus, the tested compound reduces the consumption of oxygen to be supplied to the heart. This effect is observed in intravenous administration (i.v.) as well as on intraduodenal administration (i.d.) and is to be attributed to the action of the compound tested.
Effect upon heart rate (FRQ), systolic blood pressure (Ps)
and the double product (DP) determined on anesthetized rats

Structure (SMILES)	Time to occurrence of ES (ventricular extrasystoles) ([1]; 10.0 μmole/kg i.v. (equitoxic amount), vehicle control 6.3 min)	Change in time to occurrence of ES ([1]; 10.0 μmole/kg i.v. (equitoxic amount))	EC (125%) [2]	IC25 [2]	quotient F 75%/FRP 125% [2]	IC25 [3]	LD50 [4]	DP (double product of heart rate and systolic blood pressure) ([5]; 13.5 μmole/kg i.v., initial value 39)	Ps (systolic blood pressure) ([5]; 13.5 μmole/kg i.v., initial value 104)	FRQ (heart rate) ([5]; 13.5 μmole/kg i.v., initial value 372)	Change DP ([5]; 13.5 μmole/kg i.v.)	DP (double product of heart rate and systolic blood pressure) ([5]; 100 μmole/kg i.d., initial value 41)	Ps (systolic blood pressure) ([5]; 100 μmole/kg i.d., initial value 101)	FRQ (heart rate) ([5]; 100 μmole/kg i.d., initial value 406)	Change DP ([5]; 100 μmole/kg i.d.)	Time to occurrence of ES (ventricular extrasystoles) ([1]; 6.0 μmole/kg i.v., vehicle control 6.7 min, administered as di-tartrate)	Change in time to occurrence of ES ([1]; 6.0 μmole/kg i.v., administered as di-tartrate)
CCN(CC)CC(=O)Nc1c(C)cccc1C [Lidocain, 2-(diethylamino)-N-(2,6-dimethylphenyl)-acetamide, reference compound]	6.6 min	+5%	–	–	–	–	–	–	–	–	–	–	–	–	–	–	–
CN1CC2CN(C)CC(C1)C2(C)C [Comparative compound, N,N',9,9-tetramethyl diaza bicyclo-(3,3,1)-nonane, reference compound]	–	–	122 µM	~215 µM	about 2	~215 µM	–	–	–	–	–	–	–	–	–	–	–
CCCCN1CC2CN(CCCC)CC(C1)C2(C)C [Example 3, No. 302, N,N'-di-n-butyl-9,9-dimethyl-3,7-diaza bicyclo-(3,3,1)-nonane]	–	–	1 µM	104 µM	104	3 µM	1040 µmol/kg	25 mm.Hg/min. × 1000	147 mm.Hg	174 min⁻¹	-36%	30 mm.Hg/min. × 1000	125 mm.Hg	238 min⁻¹	-27%	8.2 min	+23%

Source: patent US4742172A, “Intermediates for synthesizing pharmaceutically active 3,7-diazabicyclo-(3,3,1)-nonane compounds” (Kali-Chemie Pharma GmbH, priority 1982, dated 1988)
